The source of these data is patent US20220024877A1 (Kansas State University Research Foundation, priority 2018, published 2022).

In brackets after ≈: the same amount, converted by molar mass. Where two headings read alike, the source gives them in different places.

One series deals with S. aureus strain 1471. Put plainly: Drop assay against S. aureus strain 1471 with or without copper.
Series [1] deals with S. aureus clinical isolate SA3. Put plainly: Zinc-activated activity, MIC with Zn2+ as trigger. As to conditions: Staphylococcus aureus.
The test system of another series is MRSA. As to the kind of experiment: In vitro activity against S. aureus (MRSA), MIC with or without Cu supplementation. As to conditions: Staphylococcus aureus, MRSA.
A short description of series [2]: log P (octanol/water partition coefficient). Type of series: physicochemical.
Series [3] can be described thus: Therapeutic index (approx.).
The nature of series [4]: Copper(I) binding constant of NNSN compounds (1H-NMR titration with CuBr in D4-methanol). As to conditions: for Copper (I) binding constant: Table I; for Binding constant: Cu-NNSN 1:1 stoichiometry. As for the experimental part: They were recorded in D4-methanol by means of adding aliquots of a 5 mmol CuBr stock solution in D4-methanol to the 1 mmol NNSN-compound, resulting in 0, 0.5, 1.0, 2.0 and 3.0 mmol CuBr concentration in D4-methanol.

Series [5] has as its system Avirulent Mtb strain mc26206 (H37Rv ΔpanCD ΔleuCD, double auxotroph). As to the kind of experiment: microbe, parasite or virus in culture. In kind it is cell-based. As to conditions: Mycobacterium tuberculosis.
Where [6] appears, read: Staphylococcus aureus, 1471, read-out: MIC: +50 μM Cu.
[7] abbreviates: Staphylococcus aureus, MRSA, read-out: MIC against MRSA (clinical isolate 1471).
Where [8] appears, read: read-out: MIC* against MRSA (μM), kinetic data (determined from bacteria growth experiments), resulting in IC50 values similar to MIC values.

Experimental for MRSA: S. aureus was inoculated in Mueller-Hinton medium from frozen stocks and grown for 2-4 h (until reaching an OD600˜1) at 37° C. while shaking. Once the OD was reached, bacteria were harvested and diluted in Phenolred-free RPMI1640 medium to an OD of 0.01 (=inoculum). Test compounds where diluted from frozen DMSO-stocks were diluted in Phenolred-free RPMI1640 medium with or without Cu supplementation (100 μM) and serially diluted in 96-well plates in the same medium to achieve a final concentration of between 0.08 and 10 μM after addition of an equal volume of inoculum. Medium-only controls and growth controls in the absence of test compounds were also included. The plates were placed in sealed bags and incubated at 37° C. After 15-20 h incubation time, an OD600 reading was taken and analyzed. […] If kinetic data were required, resazurin was added to each well. Using a plate reader with incubation chamber, resazurin conversion was monitored by fluorescence reading every 20 min for up to 24 h. After normalizing the data to respective controls, the MIC was determined using the same definition as above.
Experimental for S. aureus strain 1471: For the drop assay, bacteria were grown in wells with or without copper, using a 1:2 drug titration starting at 10 μM.

For the compound `Nc1ccn(C(=S)Nc2ccc(Cl)cc2)n1` [APM03, 3-amino-N-(4-chlorophenyl)-1H-pyrazole-1-carbothioamide], the MIC with S. aureus strain 1471 (setting [6]) turned out to be 1.25 µM (≈ 0.316 µg/mL); in the series with S. aureus strain 1471 (setting [7]), 0.6 µM (≈ 0.152 µg/mL); in series [1], 2.5 µM (≈ 0.632 µg/mL); in the series on MRSA (read-out: MIC against the clinical isolate SA3, SA3 resistant to ampicillin, clindamycin, erythromycin, penicillin, and tetracycline), 70 µM (≈ 17.7 µg/mL); in the series on MRSA (setting [8]), 0.07 µM (≈ 0.0177 µg/mL). This compound also had a logP in series [2] of 2.1. Besides, the “Therapeutic index (approx.)” value in series [3] is 2. In addition, the “Copper (I) binding constant” value in series [4] was 53225 M⁻¹. Besides, the concentration for half-maximal inhibition (IC50) in series [5] (read-out: IC50 +Cu) was 300 nM; in series [5] (read-out: IC50 −Cu), greater than 12500 nM. Besides, the MIC90 in series [5] (read-out: MIC90 +Cu) is 0.5 µM (≈ 0.126 µg/mL); in series [5] (read-out: MIC90 −Cu), greater than 25 µM.
For the compound `Cc1ccn(C(=S)Nc2ccc(Cl)cc2)n1` [SB17], 5 µM (≈ 1.26 µg/mL) was the least that counted as inhibitory in series [1] (MIC). Moreover, the “Binding constant” value in series [4] was 54020 M⁻¹.
With `COc1ccc(NC(=S)n2cccn2)cc1` [SB22, N-(4-methoxyphenyl)-1H-pyrazole-1-carbothioamide], in the series with MRSA (setting [8]), the MIC amounted to 10 µM (≈ 2.33 µg/mL). Besides, the minimal inhibitory concentration (MIC) in the series with MRSA (organism not named there) was determined as 10 µM (≈ 2.33 µg/mL). For the same compound, in series [3], the “Therapeutic index (approx.)” value is listed as greater than 2. Further, in series [4], the “Binding constant” value was 3975 M⁻¹ and the “Copper (I) binding constant” value stood at 3975 M⁻¹.
Consider `Nc1ccn(C(=S)Nc2ccc([N+](=O)[O-])cc2)n1` [SB27, 3-amino-N-(4-nitrophenyl)-1H-pyrazole-1-carbothioamide], for which the MIC in the series on MRSA (setting [8]) is 0.3 µM (≈ 0.079 µg/mL). Further, in series [3], the “Therapeutic index (approx.)” value was 1. Moreover, the “Copper (I) binding constant” value in series [4] was 10460 M⁻¹.
Take `S=C(Nc1ccc(Cl)cc1)n1ccc(OCc2ccccc2)n1` [SB44, 3-(benzyloxy)-N-(4-chlorophenyl)-1H-pyrazole-1-carbothioamide]: the minimal inhibitory concentration (MIC) in the series on S. aureus strain 1471 (setting [7]) and in the series on MRSA (setting [8]) was 0.15 µM (≈ 0.0516 µg/mL) throughout. The same compound returned a logP in series [2] of 4.74.
Regarding `CN(C(=S)Nc1cccc(Cl)c1)c1ccn(C(=S)Nc2cccc(Cl)c2)n1` [SB54, N-(3-chlorophenyl)-3-(3-(3-chlorophenyl)-1-methylthioureido)-1H-pyrazole-1-carbothioamide], the MIC with S. aureus strain 1471 (setting [6]) and with S. aureus strain 1471 (setting [7]) was 0.15 µM (≈ 0.0655 µg/mL) throughout. In series [2], the log partition coefficient (logP) worked out at 5.9.

By MIC is commonly meant the lowest concentration found to suppress growth. The logP is the decadic logarithm of the partition coefficient of the neutral form, usually between octanol and water. The low end stands for a more hydrophilic compound, the high end for a more lipophilic compound. A word on the IC50: it is the concentration needed to halve the response being measured.
